Test results from patent publication EP0019223A1, “Optically active hydantoin derivatives, their synthesis, pharmaceutical formulations containing them, and intermediates” (THE WELLCOME FOUNDATION LIMITED, priority 1979, dated 1980).

Tests used:
[1] = test system: human platelet rich plasma; experiment: Inhibition of ADP-stimulated platelet aggregation in fresh human platelet rich plasma (Born aggregometer); format: cell-based; settings: for Inhibition of platelet aggregation x PGE1: relative potency with respect to PGE1, 1 minute incubation at 37°C, ADP 2 to 5 µM; for activity (anti-platelet-aggregation) times that of PGE1: summary values given in the description
Protocol: Aggregation of platelets in […] of fresh human platelet. rich plasma (PRP) was monitored in a Born aggregometer.
The compound to be tested was added to the PRP at the desired concentration, and the resulting mixture incubated at 37°C for 1 minute after which platelet aggregation was stimulated by the addition of adenosine diphosphate (ADR) in a concentration just causing maximal aggregation (2 to 5 µM).
The anti-aggregatory effect of the compound was assessed by measuring the percentage inhibition of platelet aggregation in the presence of the compound as compared with when it was completely absent.

blood platelets = experiment: Aggregation tests on rabbits (combination with phosphodiesterase inhibitor); format: in vivo; settings: dipyridamole combined with the (5S,3R) isomer

Row | SMILES | potentiation of the anti-aggregatory effect of the active compound ([1]; dipyridamole combined with the (5S,3R) isomer, human platelet rich plasma) | potentiation of the anti-aggregatory effect of the active compound (blood platelets) | IC50 ([1]; inhibition of platelet aggregation, human PRP) | Inhibition of platelet aggregation x PGE1 ([1]; first of two experiments) | activity (anti-platelet-aggregation) times that of PGE1 [1] | anti-platelet-aggregation inhibitory effect relative to the activity of the corresponding racemate ([1]; compared with racemate of (5S,3R) and (5R,3S) isomers) | Inhibition of platelet aggregation x PGE1 ([1]; second of two experiments)
1 | OCCN(CCO)c1nc(N2CCCCC2)c2nc(N(CCO)CCO)nc(N3CCCCC3)c2n1 [dipyridamole, 2,2',2",2'"-(4,8-dipiperidinopy-rimido [5,4-d]pyrimidine-2,6-diyldinitrilo)tetraethanol, reference compound] | potentation of the anti-aggregatory effect | potentation of the anti-aggregatory effect | – | – | – | – | –
2 | O=C(O)CCCCCC[C@@H]1C(=O)NC(=O)N1CC[C@H](O)C1CCCCC1 [[(5R),(3S)], (5R)-5-(6-carboxyhexyl)-1-[(3S)-3-cyclohexyl-3-hydroxypropyl]hydantoin] | – | – | > 2 µg/mL | inactive | inactive | – | –
3 | O=C(O)CCCCCC[C@H]1C(=O)NC(=O)N1CC[C@@H](O)C1CCCCC1 [[(5S),(3R)], (5S)-5-(6-carboxyhexyl)-1-[(3R)-3-cyclohexyl-3-hydroxypropyl] hydantoin] | – | – | – | 83 x PGE1 | ~40 times that of PGE1 | at least twice | 47 x PGE1
4 | O=C(O)CCCCCC[C@@H]1C(=O)NC(=O)N1CC[C@@H](O)C1CCCCC1 [[(5R),(3R)], (5R)-5-(6-carboxyhexyl)-1-[(3R) - 3-cyclohexyl 3-hydroxypropyl] hydantoin] | – | – | – | 0.05 x PGE1 | 0.05 times that of PGE1 | – | 0.04 x PGE1
5 | O=C(O)CCCCCC[C@H]1C(=O)NC(=O)N1CC[C@H](O)C1CCCCC1 [[(5S),(3S)], (5S)-5-(6-carboxyhexyl)-1-[(3S)-3-cyclohexyl-3-hydroxypropyl]hydantoin] | – | – | – | 0.07 x PGE1 | 0.06 times that of PGE1 | – | 0.05 x PGE1
